Assay results taken from patent US12122816B2, “Long acting peptide tyrosine tyrosine (PYY) analogs and methods of use” (Intarcia Therapeutics, Inc., priority 2020, dated 2024).
Starred links: 1 amine or outer side, 2 acyl side, 3 side chain; linkers in the order of their positions; H or OH if unused. Residues, ends and D or L forms follow the SMILES beside them. Groups on a side chain read outwards from the residue. *: point of attachment. C20 diacid = O=C(O)CCCCCCCCCCCCCCCCCCC(=O)*; γGlu = O=C(O)[C@H](CCC(=O)[*:2])N[*:1]

Columns and labels:
Assay in all cases: NPY receptor functional assay (cAMP, HEK-CNG cells, ACTOne membrane potential dye)
Format in all cases: cell-based
human Y2 receptor = target: T1, human Y2 receptor (Homo sapiens, UniProt P49146); conditions: NPY2R pEC50, HEK-CNG cells; standard PYY(3-36); species (human or rat) not given
T1 sequence (P49146 1-381): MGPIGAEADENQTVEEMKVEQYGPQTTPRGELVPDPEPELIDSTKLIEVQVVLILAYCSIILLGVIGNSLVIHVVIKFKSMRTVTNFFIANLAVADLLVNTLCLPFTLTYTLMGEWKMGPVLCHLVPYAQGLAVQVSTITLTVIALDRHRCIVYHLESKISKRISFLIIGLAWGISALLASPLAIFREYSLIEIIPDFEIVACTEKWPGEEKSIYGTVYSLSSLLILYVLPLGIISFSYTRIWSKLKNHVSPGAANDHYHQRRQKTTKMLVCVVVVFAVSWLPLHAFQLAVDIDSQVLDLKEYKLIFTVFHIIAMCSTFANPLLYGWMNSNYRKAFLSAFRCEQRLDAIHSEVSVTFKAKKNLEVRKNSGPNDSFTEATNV
Description: (§1) The NPY family of G-protein coupled receptors include Y1, Y2, Y4, and Y5 in humans and rats. […] Following agonist binding, the receptor-G protein complex activates a downstream intracellular signaling cascade which leads to inhibition of adenylate cyclase and a reduction in intracellular cAMP levels.
(§2) HEK-CNG cells stably expressing the human or rat Y1, Y2, Y4 or Y5 receptors (Codex Biosolutions) were used to characterize the functional potency of peptide agonists using the ActOne™ membrane potential dye kit (Codex Biosolutions). In addition to each NPY receptor, each cell line encodes a proprietary exogenous Cyclic Nucleotide-Gated (CNG) channel (Codex Biosolutions). The channel is activated by elevated intracellular levels of cAMP, resulting in ion flux and cell membrane depolarization which can be detected with a calcium sensitive dye or fluorescent membrane potential (MP) dye. Cells were carried in growth media containing 90% DMEM, 10% FBS, 250 mcg/mL G418 and 1 mcg/mL puromycin for no more than 15 passages.
(§3) Prior to testing, cells were counted and dispensed at 14,000 cells per well (Y1, Y4 and Y5) or 28,000 cells per well (Y2) into black 384 well Poly-D-Lysine plates at 20 mcL per well. Covered plates were then incubated at room temperature for 30 minutes followed by an overnight incubation at 37° C. in 5% C02. The following day, media was removed and wells were washed once with 40 mcL Dulbecco's phosphate buffered saline. […] Ten microliters of experimental peptide or peptide standard was added in triplicate to wells and incubated for 50 minutes at room temperature in the dark. Following this incubation step, plates were read again as before (final read).
(§4) NPY receptor activation, leading to a reduction in intracellular cAMP levels, is detected as a decrease in isoproteranol induced fluorescent signal. Peptide standard and experimental values were initially transformed in excel using the formula: final read/initial read. Transformed values were then normalized to receptor specific standard values (1×10−13 M minimum and 1×10−7 M maximum) using the formula: (test value−standard minavg)/(standard maxavg−standard minavg)*100. […] Normalized data was analyzed from triplicate tests and used to estimate the EC50 for each test peptide on each receptor. Data was fit in GraphPad Prism software (v8.2.1) using a 3-parameter logistic curve model: Y=Bottom+(Top−Bottom)/(1+10^((LogEC50−X))). EC50 values were converted to pEC50 values using the formula: pEC50=−Log(EC50).

human Y5 receptor = target: T2, human Y5 receptor (Homo sapiens, UniProt Q15761); conditions: NPY5R pEC50, HEK-CNG cells; standard NPY; species (human or rat) not given
T2 sequence (Q15761 1-445): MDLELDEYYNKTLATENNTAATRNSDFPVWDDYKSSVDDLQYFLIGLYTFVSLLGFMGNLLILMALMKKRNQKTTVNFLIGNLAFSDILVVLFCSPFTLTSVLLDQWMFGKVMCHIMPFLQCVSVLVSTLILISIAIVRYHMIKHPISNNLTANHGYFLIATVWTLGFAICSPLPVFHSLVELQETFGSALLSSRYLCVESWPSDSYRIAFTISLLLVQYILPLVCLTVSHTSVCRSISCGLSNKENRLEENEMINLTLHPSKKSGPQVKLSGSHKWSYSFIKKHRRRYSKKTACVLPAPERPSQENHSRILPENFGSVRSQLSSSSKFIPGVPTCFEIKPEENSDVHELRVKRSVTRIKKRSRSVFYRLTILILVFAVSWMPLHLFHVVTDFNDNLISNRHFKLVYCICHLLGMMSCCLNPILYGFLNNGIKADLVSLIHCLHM
Description: as §1, §2, §3, §4

human Y4 receptor = human Y4 receptor (Homo sapiens, UniProt P50391); conditions: standard PP, species (human or rat) not given
Description: as §1, §2, §3, §4

Sequence of human Y4 receptor (P50391 whole entry): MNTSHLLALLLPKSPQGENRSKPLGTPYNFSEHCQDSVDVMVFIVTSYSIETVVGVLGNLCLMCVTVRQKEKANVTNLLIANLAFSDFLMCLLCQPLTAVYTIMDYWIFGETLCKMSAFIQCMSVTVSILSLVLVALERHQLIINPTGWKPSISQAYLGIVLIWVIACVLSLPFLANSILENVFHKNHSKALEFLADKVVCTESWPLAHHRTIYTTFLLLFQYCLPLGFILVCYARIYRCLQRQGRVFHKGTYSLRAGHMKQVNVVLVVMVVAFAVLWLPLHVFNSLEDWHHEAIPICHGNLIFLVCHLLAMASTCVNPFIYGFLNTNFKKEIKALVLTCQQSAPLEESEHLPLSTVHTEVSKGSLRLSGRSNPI

| Structure (SMILES) | EC50 (human Y2 receptor) [nM] | EC50 (human Y5 receptor) [nM] | NPY4R pEC50 (human Y4 receptor) |
| --- | --- | --- | --- |
| CC(C)C[C@H](NC(=O)[C@H](CC(=O)O)NC(=O)[C@H](C)NC(=O)[C@H](Cc1ccc(O)cc1)NC(=O)[C@H](Cc1ccc(O)cc1)NC(=O)[C@H](CCCNC(=N)N)NC(=O)[C@H](CC(N)=O)NC(=O)[C@H](Cc1c[nH]c2ccccc12)NC(=O)[C@H](CCC(=O)O)NC(=O)[C@H](CCC(=O)O)NC(=O)[C@@H]1CCCN1C(=O)[C@H](CO)NC(=O)[C@H](C)NC(=O)[C@H](CC(=O)O)NC(=O)[C@H](CCCCN)NC(=O)CNC(=O)[C@@H]1CCCN1C(=O)[C@H](C)NC(=O)[C@H](CCC(=O)O)NC(=O)[C@@H]1CCCN1C(=O)[C@H](CCCCN)NC(=O)[C@@H]1CCCN1)C(=O)N[C@@H](CCCNC(=N)N)C(=O)N[C@@H](Cc1c[nH]cn1)C(=O)N[C@@H](CCCCNC(=O)CC[C@H](NC(=O)CC[C@H](NC(=O)CCCCCCCCCCCCCCCCCCC(=O)O)C(=O)O)C(=O)O)C(=O)N[C@@H](CC(C)C)C(=O)N[C@@H](CC(N)=O)C(=O)N[C@@H](Cc1c[nH]c2ccccc12)C(=O)N[C@@H](CC(C)C)C(=O)N[C@H](C(=O)N[C@@H](CCCNC(=N)N)C(=O)N[C@@H](CCC(N)=O)C(=O)N[C@@H](CCCNC(=N)N)C(=O)N[C@@H](Cc1ccccc1)C(N)=O)[C@@H](C)O [Compound A52] | 3.98 | 10 | inactive |
| CC(C)C[C@H](NC(=O)[C@H](Cc1ccc(O)cc1)NC(=O)[C@H](Cc1c[nH]cn1)NC(=O)[C@H](CCCNC(=N)N)NC(=O)[C@H](C)NC(=O)[C@H](CC(=O)O)NC(=O)[C@H](C)NC(=O)[C@H](Cc1ccc(O)cc1)NC(=O)[C@H](Cc1ccc(O)cc1)NC(=O)[C@H](CCCNC(=N)N)NC(=O)[C@H](CC(N)=O)NC(=O)[C@H](Cc1c[nH]c2ccccc12)NC(=O)[C@H](CCC(=O)O)NC(=O)[C@H](CCC(=O)O)NC(=O)[C@@H]1CCCN1C(=O)[C@H](CO)NC(=O)[C@H](C)NC(=O)[C@H](CC(=O)O)NC(=O)[C@H](CCCCN)NC(=O)CNC(=O)[C@@H]1CCCN1C(=O)[C@H](C)NC(=O)[C@H](CCCCNC(=O)CC[C@H](NC(=O)CC[C@H](NC(=O)CCCCCCCCCCCCCCCCCCC(=O)O)C(=O)O)C(=O)O)NC(=O)[C@@H]1CCCN1C(=O)[C@H](CCCCN)NC(=O)[C@@H]1CCCN1)C(=O)N[C@@H](CC(N)=O)C(=O)N[C@@H](Cc1c[nH]c2ccccc12)C(=O)N[C@@H](CC(C)C)C(=O)N[C@H](C(=O)N[C@@H](CCCNC(=N)N)C(=O)N[C@@H](CCC(N)=O)C(=O)N[C@@H](CCCNC(=N)N)C(=O)N(C)[C@@H](Cc1ccc(O)cc1)C(N)=O)[C@@H](C)O [Compound A6] | 1.26 | 20 | inactive |
| CC(C)C[C@H](NC(=O)[C@H](CC(=O)O)NC(=O)[C@H](C)NC(=O)[C@H](Cc1ccc(O)cc1)NC(=O)[C@H](Cc1ccc(O)cc1)NC(=O)[C@H](CCCNC(=N)N)NC(=O)[C@H](CCCCNC(=O)CC[C@H](NC(=O)CC[C@H](NC(=O)CCCCCCCCCCCCCCCCCCC(=O)O)C(=O)O)C(=O)O)NC(=O)[C@H](Cc1c[nH]c2ccccc12)NC(=O)[C@H](CCC(=O)O)NC(=O)[C@H](CCC(=O)O)NC(=O)[C@@H]1CCCN1C(=O)[C@H](CO)NC(=O)[C@H](C)NC(=O)[C@H](CC(=O)O)NC(=O)[C@H](CCCCN)NC(=O)CNC(=O)[C@@H]1CCCN1C(=O)[C@H](C)NC(=O)[C@H](CCC(=O)O)NC(=O)[C@@H]1CCCN1C(=O)[C@H](CCCCN)NC(=O)[C@@H]1CCCN1)C(=O)N[C@@H](CCCNC(=N)N)C(=O)N[C@@H](Cc1c[nH]cn1)C(=O)N[C@@H](Cc1ccc(O)cc1)C(=O)N[C@@H](CC(C)C)C(=O)N[C@@H](CC(N)=O)C(=O)N[C@@H](Cc1c[nH]c2ccccc12)C(=O)N[C@@H](CC(C)C)C(=O)N[C@H](C(=O)N[C@@H](CCCNC(=N)N)C(=O)N[C@@H](CCC(N)=O)C(=O)N[C@@H](CCCNC(=N)N)C(=O)N[C@@H](Cc1ccccc1)C(N)=O)[C@@H](C)O [Compound A55] | 1.26 | 20 | inactive |
| CC(C)C[C@H](NC(=O)[C@H](Cc1ccc(O)cc1)NC(=O)[C@H](Cc1c[nH]cn1)NC(=O)[C@H](CCCNC(=N)N)NC(=O)[C@H](C)NC(=O)[C@H](CC(=O)O)NC(=O)[C@H](C)NC(=O)[C@H](Cc1ccc(O)cc1)NC(=O)[C@H](Cc1ccc(O)cc1)NC(=O)[C@H](CCCNC(=N)N)NC(=O)[C@H](CC(N)=O)NC(=O)[C@H](CC(C)C)NC(=O)[C@H](CCC(=O)O)NC(=O)[C@H](CCC(=O)O)NC(=O)[C@@H]1CCCN1C(=O)[C@H](CO)NC(=O)[C@H](C)NC(=O)[C@H](CC(=O)O)NC(=O)[C@H](CCCCN)NC(=O)[C@H](CCCCNC(=O)CC[C@H](NC(=O)CC[C@H](NC(=O)CCCCCCCCCCCCCCCCCCC(=O)O)C(=O)O)C(=O)O)NC(=O)[C@@H]1CCCN1C(=O)[C@H](C)NC(=O)[C@H](CCC(=O)O)NC(=O)[C@@H]1CCCN1C(=O)[C@H](CCCCN)NC(=O)[C@@H]1CCCN1)C(=O)N[C@@H](CC(N)=O)C(=O)N[C@@H](Cc1c[nH]c2ccccc12)C(=O)N[C@@H](CC(C)C)C(=O)N[C@H](C(=O)N[C@@H](CCCNC(=N)N)C(=O)N[C@@H](CCC(N)=O)C(=O)N[C@@H](CCCNC(=N)N)C(=O)N[C@@H](Cc1ccccc1)C(N)=O)[C@@H](C)O [Compound A64] (H-PKPEAPK([γGlu-γGlu-C20 diacid])KDASPEELNRYYADARHYLNWLTRQRF-NH2; N-terminus assumed) | 2.51 | 12.6 | inactive |
| CC(C)C[C@H](NC(=O)[C@H](CC(=O)O)NC(=O)[C@H](C)NC(=O)[C@H](Cc1ccc(O)cc1)NC(=O)[C@H](Cc1ccc(O)cc1)NC(=O)[C@H](CCCNC(=N)N)NC(=O)[C@H](CC(N)=O)NC(=O)[C@H](Cc1c[nH]c2ccccc12)NC(=O)[C@H](CCC(=O)O)NC(=O)[C@H](CCC(=O)O)NC(=O)[C@@H]1CCCN1C(=O)[C@H](CO)NC(=O)[C@H](C)NC(=O)[C@H](CC(=O)O)NC(=O)[C@H](CCCCN)NC(=O)CNC(=O)[C@@H]1CCCN1C(=O)[C@H](C)NC(=O)[C@H](CCC(=O)O)NC(=O)[C@@H]1CCCN1C(=O)[C@H](CCCCN)NC(=O)[C@@H]1CCCN1)C(=O)N[C@@H](CCCCNC(=O)CC[C@H](NC(=O)CC[C@H](NC(=O)CCCCCCCCCCCCCCCCCCC(=O)O)C(=O)O)C(=O)O)C(=O)N[C@@H](Cc1c[nH]cn1)C(=O)N[C@@H](Cc1ccc(O)cc1)C(=O)N[C@@H](CC(C)C)C(=O)N[C@@H](CC(N)=O)C(=O)N[C@@H](Cc1c[nH]c2ccccc12)C(=O)N[C@@H](CC(C)C)C(=O)N[C@H](C(=O)N[C@@H](CCCNC(=N)N)C(=O)N[C@@H](CCC(N)=O)C(=O)N[C@@H](CCCNC(=N)N)C(=O)N[C@@H](Cc1ccccc1)C(N)=O)[C@@H](C)O [Compound A53] | 2 | 50.1 | inactive |
